Source: patent US8058243B2, “Method for treating a brain cancer with ifenprodil” (HSC Research and Development Limited Partnership, priority 2006, dated 2011)
Counter-ions that a name gives are not always drawn. Like-named read-outs stand apart in the source and are kept apart here.

Tested on: murine neural precursor cells (neurosphere cultures)
Experiment: HTS of LOPAC library against secondary neurosphere cultures, MTT proliferation assay at 3 μM, day 7 (z score, P value)
Format: cell-based, mouse
[1] = LOPAC library screen at 3 μM, secondary neurosphere cultures, MTT
[2] = LOPAC primary screen, neurosphere MTT proliferation, 3 μM, day 7
[3] = yes/no: significantly inhibited neurosphere proliferation (P<0.01) in the primary screen
[4] = LOPAC library screen, 3 μM, MTT, neurosphere cultures
[5] = yes/no: significantly inhibited neurosphere proliferation in primary screen
[6] = yes/no: significantly inhibited neurosphere proliferation (P<0.01) in primary screen
[7] = LOPAC screen, neurosphere MTT proliferation, 3 μM, day 7
[8] = yes = significantly inhibited neurosphere proliferation (P<0.01) in the primary screen
[9] = LOPAC library screen, 3 μM, MTT, secondary neurosphere cultures, day 7
[10] = yes/no: significantly inhibited neurosphere proliferation in the primary screen
[11] = primary LOPAC screen, 3 μM, MTT, neurosphere proliferation

O=c1c(-c2ccc(O)cc2)coc2cc(O)cc(O)c12 [Genistein]
Z Score [1]: −0.4689 | Z score [2]: −0.469 | Activity [3]: no

C[C@@H]1C(=O)NC2=Nc3cccc(Cl)c3CN21 [Quazinone]
Z Score [4]: 0.2046 | Z score [2]: 0.205 | Activity [5]: no

JL-18
Z Score: −0.2861 | Z score [2]: −0.286 | Activity [6]: no

Cl.OC[C@H]1NC[C@H](O)[C@@H](O)[C@@H]1O [1-Deoxynojirimycin hydrochloride]
Z Score [4]: 1.242 | Z score [7]: 1.242 | Activity [6]: no

CNC(=O)OCC[N+](C)(C)C.[Cl-] [Methylcarbamylcholine chloride]
Z Score: 1.913 | Z score [2]: 1.913 | Activity [8]: no

COC(=O)C(N)Cc1ccc(Cl)cc1.Cl (racemic) [DL-p-Chlorophenylalanine methyl ester hydrochloride]
Z Score: 0.1276 | Z score [7]: 0.128 | Activity [6]: no

O=C(O)CCCc1ccc(N(CCCl)CCCl)cc1 [Chlorambucil]
Z Score: 0.08078 | Z score [2]: 0.081 | Activity [3]: no

NS(=O)(=O)c1cc(C(=O)O)c(NCc2ccco2)cc1Cl [Furosemide]
Activity: no | Z Score (LOPAC library screen at 3 μM, MTT, secondary neurosphere cultures, screened in singlets): 1.889 | Z score [2]: 1.889

CC(=O)NNC(=O)N1Cc2ccccc2Oc2ccc(Cl)cc21 [SC 19220]
Z Score: −1.64 | Z score [2]: −1.640 | Activity [5]: no

NCS-356
Z Score: 2.833 | Z score [2]: 2.833 | Activity [8]: no

O=C(/C=C/c1ccc(O)cc1)c1ccc(O)cc1O [Isoliquiritigenin]
Z Score (168 h, 3 µM): −2.817 | Z score (168 h, 3 µM): −2.817 | Activity [3]: yes

O=C(O)c1cc([N+](=O)[O-])ccc1NCCCc1ccccc1 [5-Nitro-2-(3-phenylpropylamino)benzoic acid]
Z Score (168 h, 3 µM): −0.7343 | Z score (168 h, 3 µM): −0.734 | Activity [8]: no

CCCC(CCC)C(=O)O.[Na] [Valproic acid sodium]
Z Score [1]: −0.09493 | Z score [2]: −0.095 | Activity [8]: no

N[C@H](CCCCCP(=O)(O)O)C(=O)O [D(−)-2-Amino-7-phosphonoheptanoic acid]
Activity: no | Z Score: 0.9855 | Z score: 0.985

C[C@H]1c2cccc(O)c2C(=O)C2=C(O)[C@]3(O)C(=O)C(C(N)=O)=C(O)[C@@H](N(C)C)[C@@H]3[C@@H](O)[C@@H]21 [Doxycycline hydrochloride]
Z Score [1]: −0.5578 | Z score [7]: −0.558 | Activity [6]: no

N=c1ccn2c(n1)O[C@H]1[C@H](O)[C@@H](CO)O[C@H]12 [Ancitabine hydrochloride]
Z Score [9]: −9.951 | Z score [2]: −9.951 | Activity [8]: yes

Nc1cc(=O)[nH]c(N)n1 [2,6-Diamino-4-pyrimidinone]
Z Score [1]: −1.072 | Z score [7]: −1.072 | Activity [6]: no

Cl.NC1(C(=O)O)CCCCC1 [1-Amino-1-cyclohexanecarboxylic acid hydrochloride]
Z Score (168 h, 3 µM): −0.7495 | Z score (168 h, 3 µM): −0.749 | Activity [10]: no

CCCCS(=N)(=O)CCC(N)C(=O)O [L-Buthionine-sulfoximine]
Z Score [4]: 0.5134 | Z score [7]: 0.513 | Activity [6]: no

Cl.NCC(O)C1CCCCCCC1 (centres unmarked)
Z score [7]: −0.575 | Activity [6]: no

CN1[C@@H]2CC[C@H]1CC(OC(=O)c1c[nH]c3ccccc13)C2.Cl (some centres unmarked) [3-Tropanyl-indole-3-carboxylate hydrochloride]
Z Score: −1.528 | Z score [11]: −1.528 | Activity [10]: no

CNC1(C)C2CCC(C2)C1(C)C (centres unmarked) [Mecamylamine hydrochloride]
Z Score [9]: −2.108 | Z score [2]: −2.108 | Activity [8]: no

COC(=O)c1c(-c2cc(OC)c(OC)c(OC)c2)c2ccc(OCc3ccccn3)cc2c(=O)n1-c1ccc(N)cc1 [T-1032]
Z Score: −2.02 | Z score [11]: −2.020 | Activity [10]: no
